Results: patent US11576897B2, “Therapeutic agent for non-motor symptoms associated with Parkinson's disease” (priority 2017, dated 2023)
Marks after values point to notes of the source that are not given here.

What was measured:
[1] = target: serotonin 5-HT2A receptor (Rattus norvegicus (Rat), UniProt P14842); test: Rat tryptamine-induced forelimb clonic convulsion model; assay type: in vivo; details: orally or subcutaneously 60 minutes before tryptamine 25 mg/kg intravenously, SD-male rats
Experimental: Test 2: Rat Tryptamine-Induced Forelimb Clonic Convulsion Model for Evaluation of In Vivo Serotonin 5-HT2A Receptor Antagonism
Evaluation was conducted in a rodent tryptamine-induced forelimb clonic convulsion model which has been known as one of the methods for assessing the serotonin 5-HT2A receptor antagonism in vivo.
Seven-week-old SD-male rats were used. A dose solution for a test compound was prepared with 0.5% methylcellulose solution or saline for a solvent. A test compound was used in the form of a dose solution obtained by mixing with 0.5% methylcellulose solution to get cloudy (for oral administration) or dissolving in saline (for subcutaneous administration). Tryptamine was used and dissolved in saline as a substance inducing clonic convulsion.
A dose solution of a test compound or a solvent only was administered orally or subcutaneously to rats at the start of the test, and after 60 minutes of the administration, a saline solution containing tryptamine 25 mg/kg was administered intravenously to rats. Rats were transferred to an observation cage right after the administration of tryptamine, and their forelimb clonic convulsion was evaluated for 3 minutes.
The average inhibition ratio of each individual calculated from the following equation was deemed to be the inhibition ratio of each administration group. Inhibition ratio of each individual=(Average score of the solvent-administered group−Score of each individual)/Average score of the solvent-administered group×100
Statistical analysis of the test results was conducted by the following procedures with Stat Preclinica (Takumi Information Technology):
1) Jonckheere-Terpstra test was conducted in the solvent-administered group and test compound-administered group with the forelimb clonic convulsion score as indicator. […] 2) Non-parametric Dunnett's multiple comparison (Joint Ranking)-measured value was conducted between the solvent-administered group and test compound-administered group with the forelimb clonic convulsion score as indicator. […]

[2] = target: human serotonin transporter (SERT) (Homo sapiens (Human), UniProt P31645); test: Human serotonin transporter (SERT) binding test; details: [3H]-citalopram, h-SERT/CHO cell membrane; read-out: h-SERT binding inhibition constant Ki
human 5-HT2A receptor = human 5-HT2A receptor (Homo sapiens (Human), UniProt P28223); test: biochemical; assay type: binding; details: [3H]-ketanserin, human 5-HT2A receptor-expressed CHO cell membrane; read-out: 5-HT2A receptor binding inhibition constant Ki
human D2L receptor = human D2L receptor (Homo sapiens (Human), UniProt P14416); test: Dopamine D2L receptor binding test
Sequence of human D2L receptor (P14416 whole entry): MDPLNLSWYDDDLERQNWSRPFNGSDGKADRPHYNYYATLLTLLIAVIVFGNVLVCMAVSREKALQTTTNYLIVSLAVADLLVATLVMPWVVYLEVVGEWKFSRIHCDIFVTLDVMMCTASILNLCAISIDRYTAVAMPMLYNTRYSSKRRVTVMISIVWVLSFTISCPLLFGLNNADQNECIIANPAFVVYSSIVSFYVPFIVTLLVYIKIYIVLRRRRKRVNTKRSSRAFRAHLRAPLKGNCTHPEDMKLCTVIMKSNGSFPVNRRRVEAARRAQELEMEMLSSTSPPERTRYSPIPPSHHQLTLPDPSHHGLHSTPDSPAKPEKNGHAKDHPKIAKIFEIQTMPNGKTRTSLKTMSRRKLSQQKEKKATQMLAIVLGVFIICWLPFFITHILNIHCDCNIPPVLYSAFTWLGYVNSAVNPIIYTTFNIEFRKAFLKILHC

Row | Compound | Inhibition ratio ([1]; dose 1 mg/kg) | Inhibition ratio ([1]; dose 3 mg/kg) | Inhibition ratio ([1]; dose 10 mg/kg) | Ki [2] | Ki (human 5-HT2A receptor) | IC50 (human D2L receptor)
1 | CNCc1cc(OCc2cc(F)ccc2F)n(CC2CCCC2)n1.Cl [Example 147, 1-{1-(cyclopentylmethyl)-5-[(2,5-difluorobenzyl)oxy]-1H-pyrazol-3-yl}-N-methylmethanamine] | 46% | 46% | 71%** | 0.61 nM | 2.2 nM | –
2 | CNCc1cc(OCc2cc(F)ccc2F)n(CCC(C)(C)C)n1 [Example 500, 1-{5-[(2,5-Difluorobenzyl)oxy]-1-(3,3-dimethylbutyl)-1H-pyrazol-3-yl}-N-methylmethanamine Monophosphate] | – | – | – | – | – | > 1000 nM
3 | CNCc1cc(OCc2cc(F)ccc2F)n(CC(C)(C)C)n1 [Example 504, 1-{5-[(2,5-Difluorobenzyl)oxy]-1-(2,2-dimethylpropyl)-1H-pyrazol-3-yl}-N-methylmethanamine monophosphate dihydrate] | – | – | – | – | – | > 1000 nM
4 | CNCc1cc(OCc2cc(Cl)ccc2F)n(CCC(C)(C)OC)n1 [Example 275, 1-{5-[(5-chloro-2-fluorobenzyl)oxy]-1-(3-methoxy-3-methylbutyl)-1H-pyrazol-3-yl}-N-methylmethanamine] | – | – | – | – | 5.9 nM | > 1000 nM
